# Test results: ChEMBL document CHEMBL4706552, “Discovery of 4-methyl-N-(4-((4-methylpiperazin- 1-yl)methyl)-3-(trifluoromethyl)phenyl)-3-((6-(pyridin-3-yl)-1H-pyrazolo[3,4-d]pyrimidin-4-yl)-oxy)benzamide as a potent inhibitor of RET and its gatekeeper mutant” (Eur J Med Chem, 2020)
# The source made the active and inactive calls. The rule behind the calls is not given here.
# Legend:
# [1] = molecular target: Proto-oncogene tyrosine-protein kinase receptor Ret (Homo sapiens, UniProt P07949); assay: Inhibition of recombinant wild-type human N-terminal GST-HIS6 fused RET C-terminal domain (H658 to S1114 residues) expressed in Sf9 insect cells using TRK-C-derived peptide as substrate in presence of [33P]-ATP by filter binding assay
# Chain of Proto-oncogene tyrosine-protein kinase receptor Ret (Homo sapiens, UniProt P07949) (P07949 whole entry, the tested form may be a part): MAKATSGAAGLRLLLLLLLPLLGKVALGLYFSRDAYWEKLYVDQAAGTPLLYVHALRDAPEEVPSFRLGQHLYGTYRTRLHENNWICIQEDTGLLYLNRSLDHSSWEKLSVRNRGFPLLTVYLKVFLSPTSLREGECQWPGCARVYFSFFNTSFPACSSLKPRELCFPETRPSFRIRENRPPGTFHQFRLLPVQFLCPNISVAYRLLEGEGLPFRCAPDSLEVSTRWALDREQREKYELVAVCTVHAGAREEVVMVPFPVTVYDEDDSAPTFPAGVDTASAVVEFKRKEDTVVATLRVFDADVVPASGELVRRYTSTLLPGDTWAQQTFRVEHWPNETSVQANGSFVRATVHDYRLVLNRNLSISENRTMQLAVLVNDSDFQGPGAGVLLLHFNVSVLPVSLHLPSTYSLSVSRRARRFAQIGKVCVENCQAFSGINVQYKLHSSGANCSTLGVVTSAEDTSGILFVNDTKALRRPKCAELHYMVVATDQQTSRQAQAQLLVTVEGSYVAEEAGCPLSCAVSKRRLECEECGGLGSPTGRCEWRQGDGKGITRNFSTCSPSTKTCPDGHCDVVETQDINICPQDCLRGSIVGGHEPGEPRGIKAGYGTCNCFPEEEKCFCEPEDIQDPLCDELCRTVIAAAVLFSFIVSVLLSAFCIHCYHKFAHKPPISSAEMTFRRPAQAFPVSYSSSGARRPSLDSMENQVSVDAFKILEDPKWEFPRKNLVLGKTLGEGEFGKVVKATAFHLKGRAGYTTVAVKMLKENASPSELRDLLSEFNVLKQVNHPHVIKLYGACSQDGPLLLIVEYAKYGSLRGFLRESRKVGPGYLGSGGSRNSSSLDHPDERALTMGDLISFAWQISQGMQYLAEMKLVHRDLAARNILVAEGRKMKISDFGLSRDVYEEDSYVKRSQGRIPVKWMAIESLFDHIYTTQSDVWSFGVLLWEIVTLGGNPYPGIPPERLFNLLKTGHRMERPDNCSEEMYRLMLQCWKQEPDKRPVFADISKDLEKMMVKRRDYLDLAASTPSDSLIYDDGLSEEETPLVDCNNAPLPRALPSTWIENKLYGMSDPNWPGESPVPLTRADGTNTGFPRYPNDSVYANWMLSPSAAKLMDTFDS
# [2] = molecular target: Proto-oncogene tyrosine-protein kinase receptor Ret (Homo sapiens, UniProt P07949, V804L); assay: Inhibition of recombinant human N-terminal GST-HIS6 fused RET V804L mutant C-terminal domain (H658 to S1114 residues) expressed in Sf9 insect cells using TRK-C-derived peptide as substrate in presence of [33P]-ATP by filter binding assay
# Chain of Proto-oncogene tyrosine-protein kinase receptor Ret (Homo sapiens, UniProt P07949, V804L) (P07949 29-1114 V804L limits assumed): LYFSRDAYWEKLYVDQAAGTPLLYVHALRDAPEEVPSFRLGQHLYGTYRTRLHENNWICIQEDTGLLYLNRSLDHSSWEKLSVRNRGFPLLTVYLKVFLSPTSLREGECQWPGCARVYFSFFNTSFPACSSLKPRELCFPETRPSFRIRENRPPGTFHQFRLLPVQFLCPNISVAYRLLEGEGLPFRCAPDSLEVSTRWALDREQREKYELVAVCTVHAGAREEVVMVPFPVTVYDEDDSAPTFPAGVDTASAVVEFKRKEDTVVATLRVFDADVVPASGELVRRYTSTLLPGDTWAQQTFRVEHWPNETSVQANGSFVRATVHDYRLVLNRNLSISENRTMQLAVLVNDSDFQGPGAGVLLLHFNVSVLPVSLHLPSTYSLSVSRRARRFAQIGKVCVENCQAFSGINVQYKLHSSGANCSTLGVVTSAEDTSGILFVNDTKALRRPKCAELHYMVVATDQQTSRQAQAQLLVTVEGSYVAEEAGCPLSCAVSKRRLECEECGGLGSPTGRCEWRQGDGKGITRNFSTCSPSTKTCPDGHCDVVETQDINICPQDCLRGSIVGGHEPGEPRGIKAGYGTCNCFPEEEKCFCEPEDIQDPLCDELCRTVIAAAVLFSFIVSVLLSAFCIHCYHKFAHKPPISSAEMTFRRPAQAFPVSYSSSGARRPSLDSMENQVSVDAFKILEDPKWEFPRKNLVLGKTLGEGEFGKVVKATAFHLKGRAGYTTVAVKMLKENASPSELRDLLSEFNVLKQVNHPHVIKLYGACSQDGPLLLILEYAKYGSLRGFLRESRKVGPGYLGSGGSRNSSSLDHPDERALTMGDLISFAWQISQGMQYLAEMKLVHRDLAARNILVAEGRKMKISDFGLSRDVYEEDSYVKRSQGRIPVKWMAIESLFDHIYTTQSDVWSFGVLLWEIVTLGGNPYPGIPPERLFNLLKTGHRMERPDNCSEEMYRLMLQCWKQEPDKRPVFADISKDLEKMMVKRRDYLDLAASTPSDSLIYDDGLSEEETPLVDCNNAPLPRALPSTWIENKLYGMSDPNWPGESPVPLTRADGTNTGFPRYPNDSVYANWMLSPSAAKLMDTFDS
# [3] = molecular target: Coiled-coil domain-containing protein 6/Tyrosine-protein kinase receptor RET (Homo sapiens, UniProt P07949); assay: Inhibition of human N-terminal GST-HIS6 fused CCDC6-RET fusion protein (Met1 to Ser503 residues) expressed in Sf9 insect cells using TRK-C-derived peptide as substrate in presence of [33P]-ATP by filter binding assay
# Chain of Coiled-coil domain-containing protein 6/Tyrosine-protein kinase receptor RET (P07949 whole entry, the tested form may be a part): as the sequence (P07949 whole entry, the tested form may be a part) above
# Chain of Coiled-coil domain-containing protein 6/Tyrosine-protein kinase receptor RET (Q16204 whole entry, further chain, the tested form may be a part): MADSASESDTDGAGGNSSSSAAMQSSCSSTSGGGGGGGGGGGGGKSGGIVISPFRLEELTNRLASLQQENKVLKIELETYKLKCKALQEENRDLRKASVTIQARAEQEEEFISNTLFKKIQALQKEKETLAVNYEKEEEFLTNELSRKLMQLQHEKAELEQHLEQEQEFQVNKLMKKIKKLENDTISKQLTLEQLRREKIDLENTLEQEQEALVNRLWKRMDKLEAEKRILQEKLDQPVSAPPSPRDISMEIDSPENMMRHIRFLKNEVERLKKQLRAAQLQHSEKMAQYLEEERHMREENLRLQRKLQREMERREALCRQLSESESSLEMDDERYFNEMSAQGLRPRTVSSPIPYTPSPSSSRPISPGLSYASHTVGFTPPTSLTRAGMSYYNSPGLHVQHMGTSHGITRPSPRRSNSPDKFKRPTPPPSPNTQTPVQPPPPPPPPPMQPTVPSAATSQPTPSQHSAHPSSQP
# [4] = test system: Proto-oncogene tyrosine-protein kinase receptor Ret (Homo sapiens), P07949 [M918T]; assay: Binding affinity to wild-type human partial length RET M918T mutant (E713 to D1014 residues) expressed in bacterial expression system assessed as residual binding level at 1 uM by kinomescan method relative to control
# Chain of Proto-oncogene tyrosine-protein kinase receptor Ret (Homo sapiens), P07949 [M918T] (P07949 whole entry M918T, the tested form may be a part): as the sequence (P07949 whole entry, the tested form may be a part) above, with M918T counted along it
# [5] = test system: Proto-oncogene tyrosine-protein kinase receptor Ret (Homo sapiens), P07949 [V804L]; assay: Binding affinity to wild-type human partial length RET V804L mutant (E713 to D1014 residues) expressed in bacterial expression system assessed as residual binding level at 1 uM by kinomescan method relative to control
# Chain of Proto-oncogene tyrosine-protein kinase receptor Ret (Homo sapiens), P07949 [V804L] (P07949 whole entry V804L, the tested form may be a part): as the sequence (P07949 whole entry, the tested form may be a part) above, with V804L counted along it
# NCI-H3122 = assay: Antiproliferative activity against human NCI-H3122 cells measured after 48 hrs by MTS assay; assay type: functional
# MDA-MB-231 = assay: Antiproliferative activity against human MDA-MB-231 cells measured after 48 hrs by MTS assay; assay type: functional
# [6] = molecular target: Kinesin-1 heavy chain/ Tyrosine-protein kinase receptor RET (Homo sapiens) (UniProt P07949+P33176); assay: Inhibition of KIF5B-RET fusion protein (unknown origin) expressed in mouse BaF3 cells assessed as reduction in […] measured after 4 hrs by Western blot analysis; assay type: cell-based
# Chain of Kinesin-1 heavy chain/ Tyrosine-protein kinase receptor RET (Homo sapiens) (P07949 29-1114 limits assumed): as the sequence (P07949 29-1114 V804L limits assumed) above, with L776V counted along it
# Chain of Kinesin-1 heavy chain/ Tyrosine-protein kinase receptor RET (Homo sapiens) (P33176 2-963 partner limits assumed): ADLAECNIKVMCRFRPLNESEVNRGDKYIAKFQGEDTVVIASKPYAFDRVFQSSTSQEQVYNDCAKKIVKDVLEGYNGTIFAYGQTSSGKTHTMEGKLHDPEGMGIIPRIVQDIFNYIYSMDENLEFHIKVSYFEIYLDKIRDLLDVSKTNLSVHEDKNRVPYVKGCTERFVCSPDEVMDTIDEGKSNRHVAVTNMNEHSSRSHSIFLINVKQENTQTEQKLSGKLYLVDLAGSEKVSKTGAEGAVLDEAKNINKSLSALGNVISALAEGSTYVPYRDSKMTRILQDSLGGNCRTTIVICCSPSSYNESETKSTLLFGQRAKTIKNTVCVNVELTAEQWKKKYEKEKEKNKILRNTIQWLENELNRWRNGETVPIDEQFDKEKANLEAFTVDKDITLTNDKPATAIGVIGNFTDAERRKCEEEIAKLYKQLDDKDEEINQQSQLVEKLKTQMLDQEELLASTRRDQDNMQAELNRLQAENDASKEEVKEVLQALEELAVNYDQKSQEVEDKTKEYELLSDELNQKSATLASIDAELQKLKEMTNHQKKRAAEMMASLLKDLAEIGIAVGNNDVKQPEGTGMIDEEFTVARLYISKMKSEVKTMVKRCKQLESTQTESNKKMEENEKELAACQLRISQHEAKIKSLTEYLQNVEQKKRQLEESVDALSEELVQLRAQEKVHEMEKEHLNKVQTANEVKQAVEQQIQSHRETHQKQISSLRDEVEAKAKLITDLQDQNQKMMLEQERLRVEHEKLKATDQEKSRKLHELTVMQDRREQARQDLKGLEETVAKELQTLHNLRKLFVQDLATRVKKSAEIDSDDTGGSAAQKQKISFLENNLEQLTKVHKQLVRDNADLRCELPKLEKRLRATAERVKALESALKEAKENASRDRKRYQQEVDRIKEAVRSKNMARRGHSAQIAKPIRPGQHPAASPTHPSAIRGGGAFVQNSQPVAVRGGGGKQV
# [7] = test system: Kinesin-1 heavy chain/ Tyrosine-protein kinase receptor RET (Homo sapiens), P07949+P33176 [V804M]; assay: Inhibition of KIF5B-RET V804M mutant fusion protein (unknown origin) expressed in mouse BaF3 cells assessed as reduction in […] measured after 4 hrs by Western blot analysis; assay type: cell-based
# [8] = test system: Kinesin-1 heavy chain/ Tyrosine-protein kinase receptor RET (Homo sapiens), P07949+P33176 [V804M]; assay: Inhibition of KIF5B-RET V804M mutant fusion protein (unknown origin) expressed in mouse BaF3 cells assessed as reduction in AKT phosphorylation at 500 nM measured after 4 hrs by Western blot analysis; assay type: cell-based
# [9] = molecular target: T1, Coiled-coil domain-containing protein 6/Tyrosine-protein kinase receptor RET (Homo sapiens) (UniProt P07949+Q16204); assay: Inhibition of CCDC6-RET fusion protein (unknown origin) expressed in mouse BaF3 cells assessed as reduction in RET phosphorylation at 10 to 500 nM measured after 4 hrs by Western blot analysis; assay type: cell-based; settings: dose 10-500 nM
# T1 sequence (P07949 29-1114 limits assumed): as the sequence (P07949 29-1114 V804L limits assumed) above, with L776V counted along it
# T1 sequence (Q16204 2-474 partner limits assumed): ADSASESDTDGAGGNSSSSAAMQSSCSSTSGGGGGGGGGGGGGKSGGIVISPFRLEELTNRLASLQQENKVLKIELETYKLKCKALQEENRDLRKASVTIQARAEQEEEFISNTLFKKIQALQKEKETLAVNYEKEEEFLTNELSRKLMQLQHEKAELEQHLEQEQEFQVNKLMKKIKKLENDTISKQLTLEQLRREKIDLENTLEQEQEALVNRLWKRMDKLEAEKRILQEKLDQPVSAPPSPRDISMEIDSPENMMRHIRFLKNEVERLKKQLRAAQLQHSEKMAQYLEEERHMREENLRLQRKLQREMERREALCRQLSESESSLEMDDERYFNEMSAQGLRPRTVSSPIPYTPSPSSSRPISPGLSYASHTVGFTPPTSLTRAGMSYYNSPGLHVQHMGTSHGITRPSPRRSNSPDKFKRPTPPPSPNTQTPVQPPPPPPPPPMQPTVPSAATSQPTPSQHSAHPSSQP
# [10] = molecular target: T1, Coiled-coil domain-containing protein 6/Tyrosine-protein kinase receptor RET (Homo sapiens); assay: Inhibition of CCDC6-RET fusion protein (unknown origin) expressed in mouse BaF3 cells assessed as reduction in AKT phosphorylation at 10 to 500 nM measured after 4 hrs by Western blot analysis; assay type: cell-based; settings: dose 10-500 nM
# [11] = molecular target: T1, Coiled-coil domain-containing protein 6/Tyrosine-protein kinase receptor RET (Homo sapiens); assay: Inhibition of CCDC6-RET fusion protein (unknown origin) expressed in mouse BaF3 cells assessed as reduction in ERK phosphorylation at 10 to 500 nM measured after 4 hrs by Western blot analysis; assay type: cell-based; settings: dose 10-500 nM
# BaF3 [12] = assay: Inhibition of CCDC6-RET V804M mutant fusion protein (unknown origin) expressed in mouse BaF3 cells assessed as reduction in RET phosphorylation at 10 to 500 nM measured after 4 hrs by Western blot analysis; assay type: cell-based; settings: Homo sapiens, dose 10-500 nM
# BaF3 [13] = assay: Inhibition of CCDC6-RET V804M mutant fusion protein (unknown origin) expressed in mouse BaF3 cells assessed as reduction in ERK phosphorylation at 10 to 500 nM measured after 4 hrs by Western blot analysis; assay type: cell-based; settings: Homo sapiens, dose 10-500 nM
# [14] = Tmax in Sprague-Dawley rat at 1 mg/kg, iv; assay type: ADME, organism-based; settings: in vivo
# [15] = Cmax in Sprague-Dawley rat at 10 mg/kg, po; assay type: ADME, organism-based; parameters: route oral, dose 10 mg/kg; settings: in vivo
# [16] = AUC (0 to infinity) in Sprague-Dawley rat at 10 mg/kg, po; assay type: ADME, organism-based; parameters: time infinity, route oral, dose 10 mg/kg; settings: in vivo
# BaF3 [17] = assay: Antitumor activity against KIF5B-RET fusion protein expressing mouse BaF3 cells implanted in iv dosed BALB/c mouse assessed as tumor growth inhibition administered once daily for 7 days; assay type: functional, organism-based; settings: dose 30-50 mg/kg, time 7.0 day
# BaF3 [18] = assay: Antitumor activity against KIF5B-RET V804M mutant fusion protein expressing mouse BaF3 cells implanted in iv dosed BALB/c mouse assessed as tumor growth inhibition administered once daily for 7 days; assay type: functional, organism-based; settings: dose 30-50 mg/kg, time 7.0 day
# Mus musculus [19] = assay: (§1) In vivo inhibition of KIF5B-RET fusion protein in BALB/c mouse implanted with KIF5B-RET fusion protein expressing mouse BaF3 cells assessed as reduction in RET phosphorylation at 30 to 50 mg/kg, iv administered daily for 7 days and measured 4 hrs post last dose by Western blot analysis; assay type: functional, organism-based; settings: dose 30-50 mg/kg, time 7.0 day
# Mus musculus [20] = assay: as §1, with “KIF5B-RET V804M mutant” for “KIF5B-RET”, “SHC” for “RET”; assay type: functional, organism-based; settings: dose 30-50 mg/kg, time 7.0 day
# BaF3 [21] = assay: (§2) Induction of apoptosis in KIF5B-RET V804M mutant fusion protein expressing mouse BaF3 cells implanted in BALB/c mouse assessed as increase in cleaved PARP level at 30 to 50 mg/kg, iv administered once daily for 7 days measured 4 hrs post last dose by Western blot analysis; assay type: functional, organism-based; settings: dose 30-50 mg/kg, time 7.0 day
# BaF3 [22] = assay: as §2, with “caspase-3” for “PARP”, “H and E staining based immunohistochemical” for “Western blot”; assay type: functional, organism-based; settings: dose 30-50 mg/kg, time 7.0 day
# BaF3 [23] = assay: Induction of apoptosis in KIF5B-RET fusion protein expressing mouse BaF3 cells implanted in BALB/c mouse assessed as increase in cleaved caspase-3 level at 30 to 50 mg/kg, iv administered once daily for 7 days measured 4 hrs post last dose by H and E staining based immunohistochemical analysis; assay type: functional, organism-based; settings: dose 30-50 mg/kg, time 7.0 day
# BaF3 [24] = assay: Antitumor activity against KIF5B-RET fusion protein expressing mouse BaF3 cells implanted in BALB/c mouse assessed as tumor growth inhibition at 30 to 50 mg/kg, iv administered once daily for 7 days relative to control; assay type: functional; settings: dose 30-50 mg/kg, time 7 day
# BaF3 [25] = assay: Antitumor activity against KIF5B-RET V804M mutant fusion protein expressing mouse BaF3 cells implanted in BALB/c mouse assessed as tumor growth inhibition at 30 to 50 mg/kg, iv administered once daily for 7 days relative to control; assay type: functional; settings: dose 30-50 mg/kg, time 7 day
compound,measurement,setting,value
Cc1ccc(C(=O)Nc2ccc(CN3CCN(C)CC3)c(C(F)(F)F)c2)cc1Oc1nc(-c2cccnc2)nc2[nH]ncc12,IC50,[1],3.98 nM
same,IC50,[2],15.1 nM
same,IC50,[3],5.43 nM
same,Activity,[4],0%
same,Activity,[5],0.8%
same,GI50,NCI-H3122,5.68 µM
same,GI50,MDA-MB-231,2430 nM
same,inhibition,[6],Dose-dependent effect
same,inhibition,[7],Dose-dependent effect
same,inhibition,[8],Active
same,inhibition,[9],Active
same,inhibition,[10],Active
same,inhibition,[11],Active
same,inhibition,BaF3 [12],Active
same,inhibition,BaF3 [13],Active
same,Tmax,[14],4.98 min
same,Cmax,[15],194 ng/mL
same,AUC(0-inf),[16],2340 ng·h/mL
same,Activity,BaF3 [17],Dose-dependent effect
same,Activity,BaF3 [18],Dose-dependent effect
same,inhibition,Mus musculus [19],Dose-dependent effect
same,inhibition,Mus musculus [20],Dose-dependent effect
same,Activity,BaF3 [21],Active
same,Activity,BaF3 [22],Active
same,Activity,BaF3 [23],Active
same,TGI,BaF3 [24],>60%
same,TGI,BaF3 [25],>60%
